From patent publication US8173696B2, “Inhibitors of cysteine proteases and methods of use thereof” (Baylor University, priority 2007, dated 2012)

How the values were obtained:
Cat B = Cat B (Homo sapiens, UniProt P07858); assay: Cathepsin B inhibition in vitro; format: biochemical; settings: Table A; read-out: Cat B IC50
Method: For in vitro cysteine protease inhibition determinations, a compound's effectiveness can be given by an IC50 value. In these assays, the enzyme to be inhibited (e.g., a cruzain or cruzipain, a rhodesain, a brucipain, a congopain, a falcipain, CPB2.8 Delta CTE, a cathepsin-L, cathepsin-B, a cathepsin-H, a cathepsin-K, a cathepsin-S) is first incubated with varying concentrations (about 20-50,000 nM) of a test compound. To this is added a short peptide substrate of the enzyme of 1 to 10 amino acids, usually a di- or tri-peptide substrate, which is labeled with either a fluorogenic or chromogenic moiety. An exemplary chromogenic moiety is p-nitro-anilide (pNA). […] Exemplary peptide substrates include Phe-Arg, Arg-Arg, Phe-Arg-X (X=Ala, Arg), and Phe-X-Ser-Arg-Gln (X=Arg, 4-aminomethyl-phenylalanine (Arm), 4-aminomethyl-N-isopropyl-phenylalanin-e (laf), 4-piperidinyl-alanine (Ppa) or 4-aminocyclohexyl-alanine (Aca)). Cleavage of the labeled substrate induces a chromogenic or fluorescent signal that is measured using spectrophotometer or a spectrofluorometer, respectively. Signals induced in the presence of varying concentrations of test compound are measured in comparison to a positive control of enzyme and substrate and a negative control of enzyme in diluent (e.g., DMSO). Spontaneous cleavage of substrate is measured in controls with substrate alone. IC50 values are determined graphically using compound inhibitor concentrations in the linear portion of a plot of inhibition versus log [I].

cathepsin L [1] = assay: Inhibition of activated cathepsin L in DU-145 cell lysates; format: cell-based; settings: DU-145 cell lysates preincubated for 24 h with compound, following removal of media, replicate samples a-c; for activity (cathepsin L activity after activation): control 6.93E−03; for cps (cathepsin L activity after activation): control 26950
Method: (§1) A prostrate carcinoma derived cell line (DU-145) was maintained in free phenol red DMEM supplemented with 10% fetal bovine serum, 1% glutamine, 1% glutamax, 1% Penicillin-Streptomycin and 1 mM sodium pyruvate, at 37° C. in an atmosphere of 95% air/5% CO2. DU145 was plated at 4×10^6 cells/10 cm Petri dish for dense, super confluent density. These cultures were incubated for 3 days before collection. Twenty-four hours prior to harvesting, cells were fed with serum-free media or serum-free media containing inhibitors at a final concentration of 20 μM. On the day of harvesting, the serum-free medium was collected for assay of Cathepsin L activity secreted in the medium. The cells were rinsed in cold PBS (pH 7.2) and collected in cold PBS containing […]. The cells were lysed using a Sonicator (Misonix 3000) at medium setting with pauses at 0° C. for temperature equilibration. Then the homogenate was centrifuged at 13,000×g for 20 min and the supernatant saved. […] Fluorescence was measured in a Fluoro Max 2 (Jobin Yvon) spectrofluorometer at an excitation wavelength of 355 nm and an emission wavelength of 460 nm. The substrate is hydrolyzed by cathepsin L and to a smaller extent by cathepsin B, therefore the activity is referred to as cathepsin L+B activity. Data analysis was performed using Prism software (GraphPad version 4). Data corresponding to cathepsin L activity (after activation) in cell lysates preincubated for 24 h with Compound 14 and following the removal of media is summarized in Table 5 below. Data corresponding to cathepsin L activity (after activation) in cell lysates preincubated for 24 h with Compound 27 and following the removal of media is summarized in Table 6 below.

Cruzain = Cruzain (Trypanosoma cruzi, UniProt P25779); assay: biochemical; format: biochemical; settings: Table A; 0.1 nM cruzain, pH 5.50, 25° C., 10 μM Z-Phe-Arg-AMC
Cruzain, sequence (P25779 123-467): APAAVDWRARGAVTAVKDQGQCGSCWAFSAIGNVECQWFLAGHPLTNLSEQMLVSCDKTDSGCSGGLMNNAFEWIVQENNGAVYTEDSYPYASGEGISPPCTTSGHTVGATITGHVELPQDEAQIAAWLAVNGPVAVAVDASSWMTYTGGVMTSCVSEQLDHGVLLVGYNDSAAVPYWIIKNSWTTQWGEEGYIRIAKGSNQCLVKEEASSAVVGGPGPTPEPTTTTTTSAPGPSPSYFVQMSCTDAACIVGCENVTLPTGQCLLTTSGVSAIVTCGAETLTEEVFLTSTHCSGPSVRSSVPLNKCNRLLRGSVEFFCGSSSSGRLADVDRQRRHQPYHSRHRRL
Method: Cruzain (0.1 nM) in 100 mM sodium acetate buffer (pH 5.50) containing 5 mM DTT was preincubated for 5 min at 25° C. with inhibitor.

cathepsin L [2] = assay: Inhibition of activated cathepsin L secreted in DU-145 cell conditioned media; format: cell-based; settings: compound 20 μM, replicate samples a-c
Method: as §1, with “cell conditioned media in the presence of” for “cell lysates preincubated for 24 h with”, “14 (20 μM)” for “14 and following the removal of media”, “Table 3” for “Table 5”, “27 (20 μM)” for “27 and following the removal of media”, “Table 4” for “Table 6”

Human liver cathepsin L = target: T1, Human liver cathepsin L (Homo sapiens, UniProt P07711); assay: Cathepsin L inhibition in vitro (Z-FR-AMC fluorescence); format: biochemical; settings: Table A; 1 nM human liver cathepsin L, pH 5.5, 25° C., 50 μM Z-FR-AMC; read-out: Cat L IC50
T1 construct: from tissue; host or cells: human liver
T1 sequence (P07711 114-333): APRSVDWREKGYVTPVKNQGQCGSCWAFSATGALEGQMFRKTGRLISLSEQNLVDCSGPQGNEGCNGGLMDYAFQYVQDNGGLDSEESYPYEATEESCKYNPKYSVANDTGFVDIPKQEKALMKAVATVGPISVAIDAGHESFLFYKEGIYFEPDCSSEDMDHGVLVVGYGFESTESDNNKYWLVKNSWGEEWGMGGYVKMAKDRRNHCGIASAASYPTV
Method: Human liver cathepsin L (1 nM) was incubated in 50 mM sodium acetate buffer, pH 5.5 containing 1 mM EDTA, 2 mM DTT, 0.001% (v/v) brij 35 with potential inhibitors at 20 different concentrations (from 0.05 nM to 50 μM) at 25° C. for 5 minutes before 100 μL substrate (benzyloxycarbonyl-L-phenylalanyl-L-arginyl-7-amido-4-methylcoumarin, abbreviated as Z-FR-AMC, 50 μM in final assay condition) was added to the enzyme-inhibitor mixture; total volume was 200 μL. Controls were performed using enzyme alone, substrate alone, and enzyme with DMSO. […] Spectra were taken at 3-sec intervals for 3 minutes. IC50 values were determined by non-linear regression analysis using vo(inh)=VMAX/{1+10(logIC50−x)*Hillslope} and Prism software (GraphPad).

IC50 (Cat B): > 3000 nM | IC50 (Cruzain): 24 nM | IC50 (Human liver cathepsin L): 1.5 nM
Structure (SMILES): NC(=S)NN=C(c1cccc(Br)c1)c1cccc(Br)c1 [Compound 14, Bis(3-bromophenyl) ketone thiosemicarbazone]
activity (cathepsin L activity after activation) (cathepsin L [1]; listed as 14a): 0.00161 µM/s | activity (cathepsin L activity after activation) (cathepsin L [1]; listed as 14b): 0.00144 µM/s | activity (cathepsin L activity after activation) (cathepsin L [1]; listed as 14c): 0.00129 µM/s | cps (cathepsin L activity after activation) (cathepsin L [1]; listed as 14a): 6259 cps | cps (cathepsin L activity after activation) (cathepsin L [1]; listed as 14b): 5608 cps | cps (cathepsin L activity after activation) (cathepsin L [1]; listed as 14c): 5003 cps | activity (cathepsin L activity after activation) (cathepsin L [2]; control 1.50E−03, listed as 14a): 0.000186 µM/s | activity (cathepsin L activity after activation) (cathepsin L [2]; control 1.50E−03, listed as 14b): 0.000165 µM/s | activity (cathepsin L activity after activation) (cathepsin L [2]; control 1.50E−03, listed as 14c): 0.000127 µM/s | cps (cathepsin L activity after activation) (cathepsin L [2]; control 5848, listed as 14a): 722.5 cps | cps (cathepsin L activity after activation) (cathepsin L [2]; control 5848, listed as 14b): 641.2 cps | cps (cathepsin L activity after activation) (cathepsin L [2]; control 5848, listed as 14c): 495 cps
